Values quoted from earlier work in EP0136475A2, “Novel growth hormone-releasing peptides and method of treating mammals therewith” (The Administrators of The Tulane University Educational Fund, priority 1983, dated 1985).
No end group written: not given here.

Test system: rat anterior pituitary

Row | Substance | intrinsic biological activity (reported by Spiess et al.) | growth hormone(GH)-releasing activity (rat anterior pituitary in vitro and in vivo)
1 | hp GRF(1-29)-NH2: a synthetic amidated fragment of the natural hp GRF (YADAIFTNSYRKVLGQLSARKLLQDIMSR-NH2; UniProt P01286 32-60, looked up, fragment) | full intrinsic biological activity | –
2 | hpGRF: growth hormone-releasing factors (GRF) of human pancreatic islet tumor origin (YADAIFTNSYRKVLGQLSARKLLQDIMSRQQGESNQERGARARL-NH2; ends and bridges not checked; UniProt P01286 32-75, looked up) | – | possess growth hormone(GH)-releasing activity
